Assay results taken from patent publication US8119633B2, “Substituted sulfonamide compounds” (Gruenenthal GmbH, priority 2007, dated 2012).

Key:
[1] = biological target: T1, human bradykinin receptor 1 (B1R) (Homo sapiens, UniProt P46663); assay: Functional study on the bradykinin receptor 1 (B1R), human: FLIPR Ca2+ influx assay; assay type: cell-based; details: test substance 10 μM; CHO K1 cells transfected with human B1R; Lys-Des-Arg9-bradykinin at EC80; Ca2+ influx (Fluo-4, FLIPR); read-out: B1R antagonism, human [10 μM] % inhibition
T1 construct: expressed in transfected cells; host or cells: CHO K1 cells
T1 sequence (P46663 1-353): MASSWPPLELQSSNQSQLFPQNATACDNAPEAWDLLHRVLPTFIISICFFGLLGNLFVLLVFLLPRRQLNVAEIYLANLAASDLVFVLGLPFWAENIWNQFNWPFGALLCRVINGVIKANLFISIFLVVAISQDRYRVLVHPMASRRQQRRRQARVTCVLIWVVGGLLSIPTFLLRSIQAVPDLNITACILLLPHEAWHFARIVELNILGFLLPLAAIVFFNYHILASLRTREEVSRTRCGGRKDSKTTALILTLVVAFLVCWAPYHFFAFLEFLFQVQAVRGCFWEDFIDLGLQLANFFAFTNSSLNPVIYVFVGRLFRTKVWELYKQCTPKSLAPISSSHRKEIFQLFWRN
Description: Functional Study on the Human Bradykinin Receptor 1 (B1R)
(§1) The agonistic or antagonistic action of substances can be determined on the bradykinin receptor 1 (B1R) of the species human and rat using the following assay. According to this assay, the Ca^2+ influx through the channel is quantified with the aid of a Ca^2+-sensitive dye (Fluo-4 type, Molecular Probes Europe BV, Leiden, Netherlands) using a Fluorescent Imaging Plate Reader (FLIPR, Molecular Devices, Sunnyvale, USA).
(§2) Chinese hamster ovary cells (CHO K1 cells) which have been stably transfected with the human B1R gene (hB1R cells) or with the B1R gene of the rat (rB1R cells) are used. For functional studies, the cells are plated out on black 96-well plates having a clear base (BD Biosciences, Heidelberg, Germany or Greiner, Frickenhausen, Germany) in a density of 20,000-35,000 cells/well. The cells are incubated overnight at 37° C. and with 5% CO2 in culture medium (hB1R cells: Nutrient Mixture Ham's F12, Gibco Invitrogen GmbH, Karlsruhe, Germany or DMEM, Sigma-Aldrich, Taufkirchen, Germany; rB1R cells: D-MEM/F12, Gibco Invitrogen GmbH, Karlsruhe, Germany), with 10 vol. % FBS (fetal bovine serum, Gibco Invitrogen GmbH, Karlsruhe, Germany or PAN Biotech GmbH, Aidenbach, Germany).
(§3) On the following day, the cells are loaded for 60 minutes at 37° C. with 2.13 μM Fluo-4 (Molecular Probes Europe BV, Leiden, Netherlands) in HBSS buffer (Hank's buffered saline solution, Gibco Invitrogen GmbH, Karlsruhe, Germany) with 2.5 mM probenecid (Sigma-Aldrich, Taufkirchen, Germany) and 10 mM HEPES (Sigma-Aldrich, Taufkirchen, Germany). The plates are then washed twice with HBSS buffer, and HBSS buffer additionally containing 0.1% BSA (bovine serum albumin; Sigma-Aldrich, Taufkirchen, Germany), 5.6 mM glucose and 0.05% gelatin (Merck KGaA, Darmstadt, Germany) is added to the plates. After incubation for a further 20 minutes at room temperature, the plates are inserted into the FLIPR for Ca^2+ measurement. Alternatively, washing is carried out with buffer A (15 mM HEPES, 80 mM NaCl, 5 mM KCl, 1.2 mM CaCl2, 0.7 mM MgSO4, 2 g/l glucose, 2.5 mM probenecid) followed by loading with buffer A with added 2.5 μM Fluo-4 and 0.025% Pluronic F127 (Sigma-Aldrich, Taufkirchen, Germany). The cells are then washed twice with buffer A and incubated for 30 minutes at room temperature with buffer A additionally containing 0.05% BSA and 0.05% gelatin and are then inserted into the FLIPR for Ca^2+ measurement.
(§4) The Ca^2+-dependent fluorescence is measured before and after the addition of substances (λex=488 nm, λem=540 nm). Quantification is carried out by measuring the highest fluorescence intensity (FC, fluorescence counts) over time.
(§5) The FLIPR protocol consists of two substance additions. Test substances (10 μM) are first pipetted onto the cells and the Ca^2+ influx is compared with the control (hB1R: Lys-Des-Arg^9-bradykinin>=0.5 nM; rB1R: Des-Arg^9-bradykinin 10 μM). This gives the activation in %, based on the Ca^2+ signal after addition of Lys-Des-Arg^9-bradykinin (>=0.5 nM) or Des-Arg^9-bradykinin (10 μM).
(§6) After 10-20 minutes' incubation, Lys-Des-Arg^9-bradykinin (hB1R) or Des-Arg^9-bradykinin (rB1R) is applied in the concentration of the EC80, and the influx of Ca^2+ is likewise determined.
(§7) Antagonists lead to suppression of the Ca^2+ influx. The % inhibition compared with the maximum achievable inhibition is calculated.
(§8) In order to determine the IC50 value, the substances are added in various concentrations. Duplicate or triplicate determinations (n=2 or n=3) are carried out, and these are repeated in at least one further independent experiment (N>=2).

[2] = biological target: T2, bradykinin receptor 1 (B1R) of the rat (Rattus norvegicus, UniProt P97583); assay: Functional study on the bradykinin receptor 1 (B1R), rat: FLIPR Ca2+ influx assay; assay type: cell-based; details: test substance 10 μM; CHO K1 cells transfected with rat B1R; Des-Arg9-bradykinin at EC80; Ca2+ influx (Fluo-4, FLIPR); read-out: B1R antagonism, rat [10 μM] % inhibition
T2 construct: expressed in transfected cells; host or cells: CHO K1 cells
T2 sequence (P97583 1-337): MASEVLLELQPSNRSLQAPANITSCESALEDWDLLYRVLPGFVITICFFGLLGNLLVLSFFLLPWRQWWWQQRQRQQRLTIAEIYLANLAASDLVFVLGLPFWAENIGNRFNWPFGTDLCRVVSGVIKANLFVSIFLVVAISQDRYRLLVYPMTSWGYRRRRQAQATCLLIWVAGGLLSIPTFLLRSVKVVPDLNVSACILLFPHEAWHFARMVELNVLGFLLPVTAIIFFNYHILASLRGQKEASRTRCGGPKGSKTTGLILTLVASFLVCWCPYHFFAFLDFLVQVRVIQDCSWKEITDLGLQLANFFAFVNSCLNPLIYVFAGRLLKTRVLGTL
Description: as §1, §2, §3, §4, §5, §6, §7, §8

Compound	inhibition at 10 µM [1]	inhibition at 10 µM [2]
COc1ccc(S(=O)(=O)N2CCc3ccccc3C2CC(=O)NCC2CCC(C(c3ccccc3)N(C)C)CC2)cc1 (centres unmarked) [Example 17, N-[4-(dimethylamino-phenyl-methyl)-cyclohexylmethyl]-2-[2-(4-methoxybenzenesulfonyl)-1,2,3,4-tetrahydro-isoquinolin-1-yl]-acetamide]	36.6%	41%
CN(C)C(c1ccccc1)C1CCC(CCNC(=O)Cc2ccccc2N(C)S(=O)(=O)c2ccc(Cl)c(Cl)c2)CC1 (centres unmarked) [Example 98, 2-(2-(3,4-dichloro-N-methylphenylsulfonamido)phenyl)-N-(2-(4-((dimethylamino)(phenyl)methyl)cyclohexyl)ethyl)acetamide]	66.8%	-8%
CN(C)C(c1ccccc1)C1CCC(CNC(=O)CC2c3ccccc3CCN2S(=O)(=O)c2ccc(Cl)c(Cl)c2)CC1 (centres unmarked) [Example 29, 2-[2-(3,4-dichloro-benzenesulfonyl)-1,2,3,4-tetrahydro-isoquinolin-1-yl]-N-[4-(dimethylamino-phenyl-methyl)-cyclohexylmethyl]-acetamide]	64.5%	45%
CN(C)C(c1ccc(F)cc1)C1CCC(CCNC(=O)c2ccccc2N(C)S(=O)(=O)c2ccc(Cl)c(Cl)c2)CC1 (centres unmarked) [Example 45, 2-[(3,4-dichloro-benzenesulfonyl)-methyl-amino]-N-(2-{4-[dimethylamino-(4-fluoro-phenyl)-methyl]-cyclohexyl}-ethyl)-benzamide]	75.7%	26%
COc1ccc(S(=O)(=O)N2CCc3ccccc3C2CC(=O)NCCC2CCC(C(c3ccc(F)cc3)N(C)C)CC2)cc1 (centres unmarked) [Example 24, N-(2-{4-[dimethylamino-(4-fluoro-phenyl)-methyl]-cyclohexyl}-ethyl)-2-[2-(4-methoxy-benzenesulfonyl)-1,2,3,4-tetrahydro-isoquinolin-1-yl]-acetamide]	82.2%	67%
CN(C)C(c1cccc(F)c1)C1CCC(NC(=O)C2Cc3ccccc3N2S(=O)(=O)c2ccc(Cl)c(Cl)c2)CC1 (centres unmarked) [Example 92, 1-(3,4-dichlorophenylsulfonyl)-N-(4-((dimethylamino)(3-fluorophenyl)methyl)cyclohexyl)indoline-2-carboxamide]	26%	-13%
COc1ccc(S(=O)(=O)N2CCc3ccccc3C2CC(=O)NCC2CCC(C(c3ccc(Cl)cc3)N(C)C)CC2)cc1 (centres unmarked) [Example 20, N-{4-[(4-chloro-phenyl)-dimethylamino-methyl]-cyclohexylmethyl}-2-[2-(4-methoxy-benzenesulfonyl)-1,2,3,4-tetrahydro-isoquinolin-1-yl]-acetamide]	38.8%	28%
COc1ccc(S(=O)(=O)N2CCc3ccccc3C2CC(=O)NCCC2CCC(C(c3cccc(F)c3)N(C)C)CC2)cc1 (centres unmarked) [Example 23, N-(2-{4-[dimethylamino-(3-fluoro-phenyl)-methyl]-cyclohexyl}-ethyl)-2-[2-(4-methoxy-benzenesulfonyl)-1,2,3,4-tetrahydro-isoquinolin-1-yl]-acetamide]	64%	57%
CN(C)C(CCc1ccccc1)C1CCC(CCNC(=O)C2Cc3ccccc3N2S(=O)(=O)c2ccc(Cl)c(Cl)c2)CC1 (centres unmarked) [Example 97, 1-(3,4-dichlorophenylsulfonyl)-N-(2-(4-(1-(dimethylamino)-3-phenylpropyl)cyclohexyl)ethyl)indoline-2-carboxamide]	16%	11%
CN(C)C(CCc1ccccc1)C1CCC(CNC(=O)CC2c3ccccc3CCN2S(=O)(=O)c2ccc(Cl)c(Cl)c2)CC1 (centres unmarked) [Example 30, 2-[2-(3,4-dichloro-benzenesulfonyl)-1,2,3,4-tetrahydro-isoquinolin-1-yl]-N-[4-(1-dimethylamino-3-phenyl-propyl)-cyclohexylmethyl]-acetamide]	75.7%	58%
CN(C)C(c1ccccc1)C1CCC(NC(=O)CC2c3ccccc3CCN2S(=O)(=O)c2ccc(Cl)c(Cl)c2)CC1 (centres unmarked) [Example 10, 2-[2-(3,4-dichloro-benzenesulfonyl)-1,2,3,4-tetrahydro-isoquinolin-1-yl]-N-[4-(dimethylamino-phenyl-methyl)-cyclohexyl]-acetamide]	70.1%	0%
CN(C)C(c1cccc(F)c1)C1CCC(NC(=O)c2ccccc2N(C)S(=O)(=O)c2ccc(Cl)c(Cl)c2)CC1 (centres unmarked) [Example 36, 2-[(3,4-dichloro-benzenesulfonyl)-methyl-amino]-N-{4-[dimethylamino-(3-fluoro-phenyl)-methyl]-cyclohexyl}-benzamide]	64.1%	67%
CN(C)C(c1ccc(F)cc1)C1CCC(NC(=O)CC2c3ccccc3CCN2S(=O)(=O)c2ccc(Cl)c(Cl)c2)CC1 (centres unmarked) [Example 27, 2-(2-(3,4-dichlorophenylsulfonyl)-1,2,3,4-tetrahydroisoquinolin-1-yl)-N-(4-((dimethylamino)(4-fluorophenyl)methyl)cyclohexyl)acetamide]	103%	78%
COc1ccc(S(=O)(=O)N2CCc3ccccc3C2CC(=O)NCCC2CCC(C(c3cccs3)N(C)C)CC2)cc1 (centres unmarked) [Example 25, N-{2-[4-(dimethylamino-thiophen-2-yl-methyl)-cyclohexyl]-ethyl}-2-[2-(4-methoxy-benzenesulfonyl)-1,2,3,4-tetrahydro-isoquinolin-1-yl]-acetamide]	79.5%	68%
CN(C)C(CCc1ccccc1)C1CCC(CNC(=O)c2ccccc2N(C)S(=O)(=O)c2ccc(Cl)c(Cl)c2)CC1 (centres unmarked) [Example 39, 2-[(3,4-dichloro-benzenesulfonyl)-methyl-amino]-N-[4-(1-dimethylamino-3-phenyl-propyl)-cyclohexylmethyl]-benzamide]	79.3%	42%
COc1ccc(S(=O)(=O)N2CCc3ccccc3C2CC(=O)NCC2CCC(C(CCc3ccccc3)N(C)C)CC2)cc1 (centres unmarked) [Example 18, N-[4-(1-dimethylamino-3-phenyl-propyl)-cyclohexylmethyl]-2-[2-(4-methoxybenzenesulfonyl)-1,2,3,4-tetrahydro-isoquinolin-1-yl]-acetamide]	58.8%	73%
